Assay results reported in BigSolDB 2.1.

Cc1ccc(-c2ncc(Cl)cc2-c2ccc(S(C)(=O)=O)cc2)cn1
solubility (mole fraction)
Conditions	293.2 K	298.2 K	303.2 K	308.2 K	313.2 K
in 1,4-butanediol	0.0605	0.0723	0.0873	0.104	0.124
in 1,4-dioxane	0.0445	0.073	0.111	0.173	0.265
in DMAc	0.0481	0.0811	0.141	0.236	0.387
in DMF	0.0369	0.069	0.122	0.215	0.374
in DMSO	0.0292	0.0605	0.126	0.253	0.495
in NMP	0.0658	0.108	0.169	0.265	0.411
in ethanol	0.0337	0.0537	0.0807	0.121	0.182
in ethylene glycol	0.113	0.119	0.129	0.139	0.153
in formamide	0.0586	0.113	0.225	0.425	0.779
in glycerin	0.0558	0.0566	0.0577	0.0593	0.0625
in isopropanol	0.0282	0.0452	0.0668	0.1	0.149
in methanol	0.0241	0.0379	0.0561	0.0843	0.125
in n-propanol	0.0505	0.0788	0.111	0.164	0.238
in propylene glycol	0.0472	0.0605	0.0754	0.0942	0.117
in water	1.36e-05	1.58e-05	1.86e-05	2.12e-05	2.44e-05

Conditions	solubility (mole fraction)
in PEG-200, 293.2 K	0.116
in PEG-200, 298.2 K	0.135
in PEG-200, 303.2 K	0.156
in PEG-200, 308.2 K	0.176
in PEG-200, 313.2 K	0.201
in PEG-400, 293.2 K	0.211
in PEG-400, 298.2 K	0.238
in PEG-400, 303.2 K	0.275
in PEG-400, 308.2 K	0.311
in PEG-400, 313.2 K	0.351
in PEG-600, 293.2 K	0.329
in PEG-600, 298.2 K	0.354
in PEG-600, 303.2 K	0.389
in PEG-600, 308.2 K	0.422
in PEG-600, 313.2 K	0.456
